# Experimental data reported in PubChem BioAssay AID2060907 (Molecular Pharmacology Branch, DTP, NCI, 2025).
# Test system: 388556-164-R-J1-PDC complex spheroid viability
# Assay: Anticancer human tumor 388556-164-R-J1-PDC patient-derived colon adenocarcinoma cell line growth inhibition [RAS]
# Details: for viability, T/C: stronger effect = lower value
# Outline: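 Multi-cell-type spheroids: tumor cells plus HUVEC endothelial cells and mesenchymal stem cells. RAS-pathway inhibitors were combined with targeted agents, each dosed in half-log steps down from clinical Cmax, or from 10 microM when Cmax was unknown.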
# 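Note: spheroids exposed to compound for 7 days before readout.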
# 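Throughout, for viability, T/C: 100% = DMSO vehicle control luminescence.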
smiles,measurement,setting,value
CCN1CCN(Cc2ccc(Nc3ncc(F)c(-c4cc(F)c5nc(C)n(C(C)C)c5c4)n3)nc2)CC1 + C#Cc1c(F)ccc2cc(O)cc(-c3ncc4c(N5CC6CCC(C5)N6)nc(OCC56CCCN5CC(F)C6)nc4c3F)c12,IC50,"curve of first compound, second compound 0.0316 µM",> 1000 nM
same,IC50,"curve of first compound, second compound 0.1 µM",> 1000 nM
same,IC50,"curve of first compound, second compound 0.316 µM",> 1000 nM
same,IC50,"curve of first compound, second compound 1 µM",> 1000 nM
same,IC50,"curve of first compound, second compound 3.16 µM",> 1000 nM
same,IC50,"curve of first compound, second compound 10 µM",208 nM
same,"viability, T/C","second compound 0.0316 µM, first compound 0.00316 µM",106%
same,"viability, T/C","second compound 0.0316 µM, first compound 0.01 µM",106%
same,"viability, T/C","second compound 0.0316 µM, first compound 0.0316 µM",106%
same,"viability, T/C","second compound 0.0316 µM, first compound 0.1 µM",103%
same,"viability, T/C","second compound 0.0316 µM, first compound 0.316 µM",92.3%
same,"viability, T/C","second compound 0.0316 µM, first compound 1 µM",103%
same,"viability, T/C","second compound 0.1 µM, first compound 0.00316 µM",110%
same,"viability, T/C","second compound 0.1 µM, first compound 0.01 µM",100%
same,"viability, T/C","second compound 0.1 µM, first compound 0.0316 µM",94.8%
same,"viability, T/C","second compound 0.1 µM, first compound 0.1 µM",89.2%
same,"viability, T/C","second compound 0.1 µM, first compound 0.316 µM",91.6%
same,"viability, T/C","second compound 0.1 µM, first compound 1 µM",99.5%
same,"viability, T/C","second compound 0.316 µM, first compound 0.00316 µM",100%
same,"viability, T/C","second compound 0.316 µM, first compound 0.01 µM",99.2%
same,"viability, T/C","second compound 0.316 µM, first compound 0.0316 µM",81.1%
same,"viability, T/C","second compound 0.316 µM, first compound 0.1 µM",88%
same,"viability, T/C","second compound 0.316 µM, first compound 0.316 µM",93.3%
same,"viability, T/C","second compound 0.316 µM, first compound 1 µM",77.4%
same,"viability, T/C","second compound 1 µM, first compound 0.00316 µM",92.5%
same,"viability, T/C","second compound 1 µM, first compound 0.01 µM",96.3%
same,"viability, T/C","second compound 1 µM, first compound 0.0316 µM",73.2%
same,"viability, T/C","second compound 1 µM, first compound 0.1 µM",82.5%
same,"viability, T/C","second compound 1 µM, first compound 0.316 µM",85.6%
same,"viability, T/C","second compound 1 µM, first compound 1 µM",61.6%
same,"viability, T/C","second compound 3.16 µM, first compound 0.00316 µM",78.3%
same,"viability, T/C","second compound 3.16 µM, first compound 0.01 µM",73.9%
same,"viability, T/C","second compound 3.16 µM, first compound 0.0316 µM",76.3%
same,"viability, T/C","second compound 3.16 µM, first compound 0.1 µM",74.3%
same,"viability, T/C","second compound 3.16 µM, first compound 0.316 µM",71%
same,"viability, T/C","second compound 3.16 µM, first compound 1 µM",54.9%
same,"viability, T/C","second compound 10 µM, first compound 0.00316 µM",76.8%
same,"viability, T/C","second compound 10 µM, first compound 0.01 µM",67.8%
same,"viability, T/C","second compound 10 µM, first compound 0.0316 µM",72.7%
same,"viability, T/C","second compound 10 µM, first compound 0.1 µM",57.7%
same,"viability, T/C","second compound 10 µM, first compound 0.316 µM",45.5%
same,"viability, T/C","second compound 10 µM, first compound 1 µM",37.4%
CC(Nc1ccc2c(c1)OCCn1cc(N3C(=O)OCC3C(F)F)nc1-2)C(N)=O (stereo not given),"viability, T/C",compound 0.1 µM,87.7% [middle of 4 runs]
same,"viability, T/C",compound 0.316 µM,88.6% [middle of 4 runs]
same,"viability, T/C",compound 1 µM,80.3% [middle of 4 runs]
same,"viability, T/C",compound 3.16 µM,74.9% [middle of 4 runs]
same,"viability, T/C",compound 10 µM,67.4% [middle of 4 runs]
same,IC50,curve of compound,> 10000 nM
CCc1c2c(nc3ccc(O)cc13)-c1cc3c(c(=O)n1C2)COC(=O)[C@]3(O)CC + CCn1c(-c2cccnc2C(C)OC)c2c3cc(ccc31)N1CCOC(CC(NC(=O)C(C(C)C)N(C)C(=O)C3(F)CCN(C(=O)C#CC(C)(C)N(C)C)CC3)C(=O)N3CCCC(N3)C(=O)OCC(C)(C)C2)C1,IC50,"curve of first compound, second compound 0.000949 µM",68 nM
same,IC50,"curve of first compound, second compound 0.003 µM",74.5 nM
same,IC50,"curve of first compound, second compound 0.00949 µM",72 nM
same,IC50,"curve of first compound, second compound 0.03 µM",86.1 nM
same,IC50,"curve of first compound, second compound 0.0949 µM",69.5 nM
same,IC50,"curve of first compound, second compound 0.3 µM",46.7 nM
same,"viability, T/C","second compound 0.000949 µM, first compound 0.000949 µM",107%
same,"viability, T/C","second compound 0.000949 µM, first compound 0.003 µM",98.7%
same,"viability, T/C","second compound 0.000949 µM, first compound 0.00949 µM",87.1%
same,"viability, T/C","second compound 0.000949 µM, first compound 0.03 µM",62.1%
same,"viability, T/C","second compound 0.000949 µM, first compound 0.0949 µM",45.8%
same,"viability, T/C","second compound 0.000949 µM, first compound 0.3 µM",32.1%
same,"viability, T/C","second compound 0.003 µM, first compound 0.000949 µM",111%
same,"viability, T/C","second compound 0.003 µM, first compound 0.003 µM",88.7%
same,"viability, T/C","second compound 0.003 µM, first compound 0.00949 µM",83.6%
same,"viability, T/C","second compound 0.003 µM, first compound 0.03 µM",61.4%
same,"viability, T/C","second compound 0.003 µM, first compound 0.0949 µM",47.3%
same,"viability, T/C","second compound 0.003 µM, first compound 0.3 µM",29.1%
same,"viability, T/C","second compound 0.00949 µM, first compound 0.000949 µM",104%
same,"viability, T/C","second compound 0.00949 µM, first compound 0.003 µM",96.5%
same,"viability, T/C","second compound 0.00949 µM, first compound 0.00949 µM",83.8%
same,"viability, T/C","second compound 0.00949 µM, first compound 0.03 µM",63.6%
same,"viability, T/C","second compound 0.00949 µM, first compound 0.0949 µM",46.2%
same,"viability, T/C","second compound 0.00949 µM, first compound 0.3 µM",31.1%
same,"viability, T/C","second compound 0.03 µM, first compound 0.000949 µM",106%
same,"viability, T/C","second compound 0.03 µM, first compound 0.003 µM",96.8%
same,"viability, T/C","second compound 0.03 µM, first compound 0.00949 µM",78.2%
same,"viability, T/C","second compound 0.03 µM, first compound 0.03 µM",65.5%
same,"viability, T/C","second compound 0.03 µM, first compound 0.0949 µM",52.7%
same,"viability, T/C","second compound 0.03 µM, first compound 0.3 µM",27%
same,"viability, T/C","second compound 0.0949 µM, first compound 0.000949 µM",93.3%
same,"viability, T/C","second compound 0.0949 µM, first compound 0.003 µM",90%
same,"viability, T/C","second compound 0.0949 µM, first compound 0.00949 µM",80.4%
same,"viability, T/C","second compound 0.0949 µM, first compound 0.03 µM",63.7%
same,"viability, T/C","second compound 0.0949 µM, first compound 0.0949 µM",45.3%
same,"viability, T/C","second compound 0.0949 µM, first compound 0.3 µM",25.5%
same,"viability, T/C","second compound 0.3 µM, first compound 0.000949 µM",92.4%
same,"viability, T/C","second compound 0.3 µM, first compound 0.003 µM",89.7%
same,"viability, T/C","second compound 0.3 µM, first compound 0.00949 µM",72.2%
same,"viability, T/C","second compound 0.3 µM, first compound 0.03 µM",57.3%
same,"viability, T/C","second compound 0.3 µM, first compound 0.0949 µM",39.1%
same,"viability, T/C","second compound 0.3 µM, first compound 0.3 µM",21.4%
